Values belong to the molecule of their own block, whether it stands above or below them.
Key:
Lyp1 (Lyp1-YPet) [1] = target: T1, Lyp1 (Lyp1-YPet) (Saccharomyces cerevisiae, UniProt P32487, G289A/W291A); experiment: initial rate of […]-lysine uptake in S. cerevisiae cells; assay type: cell-based; details: out-to-in transport; 100 mM potassium phosphate, 10 mM glucose, pH 6.0, 30 °C; labelled compound
T1 construct: full-length, YPet fluorescent protein fusion, plasmid-expressed in S. cerevisiae, assayed in whole cells
T1 sequence (P32487 1-611 G289A/W291A): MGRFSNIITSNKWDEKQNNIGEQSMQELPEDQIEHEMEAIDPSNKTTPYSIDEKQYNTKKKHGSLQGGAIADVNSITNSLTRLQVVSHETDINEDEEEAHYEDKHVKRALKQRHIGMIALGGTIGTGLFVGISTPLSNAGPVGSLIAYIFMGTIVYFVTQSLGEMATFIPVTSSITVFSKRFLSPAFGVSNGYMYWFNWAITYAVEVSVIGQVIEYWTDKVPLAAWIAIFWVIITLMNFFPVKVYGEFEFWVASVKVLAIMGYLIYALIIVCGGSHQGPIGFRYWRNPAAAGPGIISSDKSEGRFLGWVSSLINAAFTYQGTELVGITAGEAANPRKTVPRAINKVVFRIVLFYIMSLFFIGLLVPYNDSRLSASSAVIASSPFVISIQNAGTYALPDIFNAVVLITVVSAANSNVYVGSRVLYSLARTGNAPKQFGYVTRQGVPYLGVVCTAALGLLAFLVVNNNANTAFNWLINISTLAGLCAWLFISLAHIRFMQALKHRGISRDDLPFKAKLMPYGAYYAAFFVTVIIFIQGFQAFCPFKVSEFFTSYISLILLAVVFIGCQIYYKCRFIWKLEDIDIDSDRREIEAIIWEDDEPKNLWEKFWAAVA

Lyp1 (Lyp1-YPet) [2] = target: T2, Lyp1 (Lyp1-YPet) (Saccharomyces cerevisiae, UniProt P32487, I280A/G281A/F282A); experiment: as above; assay type: cell-based; details: out-to-in transport; 100 mM potassium phosphate, 10 mM glucose, pH 6.0, 30 °C; labelled compound
T2 construct: full-length, YPet fluorescent protein fusion, plasmid-expressed in S. cerevisiae, assayed in whole cells
T2 sequence (P32487 1-611 I280A/G281A/F282A): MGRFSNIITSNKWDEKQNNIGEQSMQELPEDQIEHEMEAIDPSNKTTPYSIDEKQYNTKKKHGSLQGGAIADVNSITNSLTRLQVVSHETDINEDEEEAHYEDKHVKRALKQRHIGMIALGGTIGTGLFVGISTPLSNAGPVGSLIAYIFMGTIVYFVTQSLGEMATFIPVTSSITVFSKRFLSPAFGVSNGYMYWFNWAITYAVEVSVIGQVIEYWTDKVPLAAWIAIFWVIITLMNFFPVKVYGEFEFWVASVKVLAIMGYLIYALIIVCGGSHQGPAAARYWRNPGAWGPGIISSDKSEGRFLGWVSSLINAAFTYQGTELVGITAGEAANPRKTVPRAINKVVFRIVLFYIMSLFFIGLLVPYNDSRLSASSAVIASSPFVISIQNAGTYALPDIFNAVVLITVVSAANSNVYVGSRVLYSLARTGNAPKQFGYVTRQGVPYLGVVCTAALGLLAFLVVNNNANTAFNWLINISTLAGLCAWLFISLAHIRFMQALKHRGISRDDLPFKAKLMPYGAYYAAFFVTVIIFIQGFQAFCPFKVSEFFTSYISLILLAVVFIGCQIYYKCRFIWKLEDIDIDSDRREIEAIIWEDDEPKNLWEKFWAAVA

Lyp1 (Lyp1-YPet) [3] = target: T3, Lyp1 (Lyp1-YPet) (Saccharomyces cerevisiae, UniProt P32487); experiment: competition with […]-lysine uptake in S. cerevisiae cells; assay type: cell-based; details: 20 µM [14C]-lysine, 100 mM potassium phosphate, 10 mM glucose, pH 6.0, 30 °C; competitor
T3 construct: full-length, YPet fluorescent protein fusion, plasmid-expressed in S. cerevisiae, assayed in whole cells
T3 sequence (P32487 1-611): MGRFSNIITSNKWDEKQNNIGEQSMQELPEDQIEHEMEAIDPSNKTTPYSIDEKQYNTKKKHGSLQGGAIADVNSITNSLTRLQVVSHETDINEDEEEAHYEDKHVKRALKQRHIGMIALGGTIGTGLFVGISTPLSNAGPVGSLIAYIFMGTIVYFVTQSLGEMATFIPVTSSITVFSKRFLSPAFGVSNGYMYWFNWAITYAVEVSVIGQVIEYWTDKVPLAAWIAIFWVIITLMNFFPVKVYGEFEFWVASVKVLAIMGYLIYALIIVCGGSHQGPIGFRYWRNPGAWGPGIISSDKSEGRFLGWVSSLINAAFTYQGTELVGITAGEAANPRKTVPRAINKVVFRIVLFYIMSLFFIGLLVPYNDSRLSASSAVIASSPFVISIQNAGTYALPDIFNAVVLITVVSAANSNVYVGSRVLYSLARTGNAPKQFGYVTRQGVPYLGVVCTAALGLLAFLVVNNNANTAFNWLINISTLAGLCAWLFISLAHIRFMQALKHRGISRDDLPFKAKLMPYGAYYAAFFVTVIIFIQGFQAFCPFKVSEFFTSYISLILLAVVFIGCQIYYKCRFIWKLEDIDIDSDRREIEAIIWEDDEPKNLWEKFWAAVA

[4] = substrate: NCCCC[C@H](N)C(=O)O; experiment: cells, lysate or membranes; assay type: cell-based, Saccharomyces cerevisiae; details: out-to-in transport, 100 mM potassium phosphate, 10 mM glucose, pH 6.0, 30 °C, labelled compound

Molecule: NCCCC[C@H](N)C(=O)O [L-lysine]
Km (Lyp1 (Lyp1-YPet) [1]): > 100 µM | Km (Lyp1 (Lyp1-YPet) [2]): > 100 µM

% reduction of lysine transport at 100 mM (Lyp1 (Lyp1-YPet) [3]): > 80%
Molecule: C[C@H](N)C(=O)O [alanine]

Molecule: N=C(N)NCCC[C@H](N)C(=O)O [arginine]
% reduction of lysine transport at 100 mM (Lyp1 (Lyp1-YPet) [3]): > 80%

Molecule: N[C@@H](Cc1cnc[nH]1)C(=O)O [histidine]
% reduction of lysine transport at 100 mM (Lyp1 (Lyp1-YPet) [3]): > 80%

B1: Lyp1 (Lyp1-YPet) (Saccharomyces cerevisiae S288C) (protein)
chain: MGRFSNIITSNKWDEKQNNIGEQSMQELPEDQIEHEMEAIDPSNKTTPYSIDEKQYNTKKKHGSLQGGAIADVNSITNSLTRLQVVSHETDINEDEEEAHYEDKHVKRALKQRHIGMIALGGTIGTGLFVGISTPLSNAGPVGSLIAYIFMGTIVYFVTQSLGEMATFIPVTSSITVFSKRFLSPAFGVSNGYMYWFNWAITYAVEVSVIGQVIEYWTDKVPLAAWIAIFWVIITLMNFFPVKVYGEFEFWVASVKVLAIMGYLIYALIIVCGGSHQGPIGFRYWRNPGAWGPGIISSDKSEGRFLGWVSSLINAAFTYQGTELVGITAGEAANPRKTVPRAINKVVFRIVLFYIMSLFFIGLLVPYNDSRLSASSAVIASSPFVISIQNAGTYALPDIFNAVVLITVVSAANSNVYVGSRVLYSLARTGNAPKQFGYVTRQGVPYLGVVCTAALGLLAFLVVNNNANTAFNWLINISTLAGLCAWLFISLAHIRFMQALKHRGISRDDLPFKAKLMPYGAYYAAFFVTVIIFIQGFQAFCPFKVSEFFTSYISLILLAVVFIGCQIYYKCRFIWKLEDIDIDSDRREIEAIIWEDDEPKNLWEKFWAAVA
notes: full-length, YPet fluorescent protein fusion, plasmid-expressed in S. cerevisiae, assayed in whole cells
Km [4]: 10 µM

B2: Lyp1 (Lyp1-YPet) (Saccharomyces cerevisiae S288C; N390A/Q389A) (protein)
chain: MGRFSNIITSNKWDEKQNNIGEQSMQELPEDQIEHEMEAIDPSNKTTPYSIDEKQYNTKKKHGSLQGGAIADVNSITNSLTRLQVVSHETDINEDEEEAHYEDKHVKRALKQRHIGMIALGGTIGTGLFVGISTPLSNAGPVGSLIAYIFMGTIVYFVTQSLGEMATFIPVTSSITVFSKRFLSPAFGVSNGYMYWFNWAITYAVEVSVIGQVIEYWTDKVPLAAWIAIFWVIITLMNFFPVKVYGEFEFWVASVKVLAIMGYLIYALIIVCGGSHQGPIGFRYWRNPGAWGPGIISSDKSEGRFLGWVSSLINAAFTYQGTELVGITAGEAANPRKTVPRAINKVVFRIVLFYIMSLFFIGLLVPYNDSRLSASSAVIASSPFVISIAAAGTYALPDIFNAVVLITVVSAANSNVYVGSRVLYSLARTGNAPKQFGYVTRQGVPYLGVVCTAALGLLAFLVVNNNANTAFNWLINISTLAGLCAWLFISLAHIRFMQALKHRGISRDDLPFKAKLMPYGAYYAAFFVTVIIFIQGFQAFCPFKVSEFFTSYISLILLAVVFIGCQIYYKCRFIWKLEDIDIDSDRREIEAIIWEDDEPKNLWEKFWAAVA
notes: as for B1
Km [4]: 7.4 ± 1.0 µM

B3: Lyp1 (Lyp1-YPet) (Saccharomyces cerevisiae S288C; F471A/T469A) (protein)
chain: MGRFSNIITSNKWDEKQNNIGEQSMQELPEDQIEHEMEAIDPSNKTTPYSIDEKQYNTKKKHGSLQGGAIADVNSITNSLTRLQVVSHETDINEDEEEAHYEDKHVKRALKQRHIGMIALGGTIGTGLFVGISTPLSNAGPVGSLIAYIFMGTIVYFVTQSLGEMATFIPVTSSITVFSKRFLSPAFGVSNGYMYWFNWAITYAVEVSVIGQVIEYWTDKVPLAAWIAIFWVIITLMNFFPVKVYGEFEFWVASVKVLAIMGYLIYALIIVCGGSHQGPIGFRYWRNPGAWGPGIISSDKSEGRFLGWVSSLINAAFTYQGTELVGITAGEAANPRKTVPRAINKVVFRIVLFYIMSLFFIGLLVPYNDSRLSASSAVIASSPFVISIQNAGTYALPDIFNAVVLITVVSAANSNVYVGSRVLYSLARTGNAPKQFGYVTRQGVPYLGVVCTAALGLLAFLVVNNNANAAANWLINISTLAGLCAWLFISLAHIRFMQALKHRGISRDDLPFKAKLMPYGAYYAAFFVTVIIFIQGFQAFCPFKVSEFFTSYISLILLAVVFIGCQIYYKCRFIWKLEDIDIDSDRREIEAIIWEDDEPKNLWEKFWAAVA
notes: as for B1
Km [4]: 25 ± 21 µM

B4: Lyp1 (Lyp1-YPet) (Saccharomyces cerevisiae S288C; E215A/W217A/Y216A) (protein)
chain: MGRFSNIITSNKWDEKQNNIGEQSMQELPEDQIEHEMEAIDPSNKTTPYSIDEKQYNTKKKHGSLQGGAIADVNSITNSLTRLQVVSHETDINEDEEEAHYEDKHVKRALKQRHIGMIALGGTIGTGLFVGISTPLSNAGPVGSLIAYIFMGTIVYFVTQSLGEMATFIPVTSSITVFSKRFLSPAFGVSNGYMYWFNWAITYAVEVSVIGQVIAAATDKVPLAAWIAIFWVIITLMNFFPVKVYGEFEFWVASVKVLAIMGYLIYALIIVCGGSHQGPIGFRYWRNPGAWGPGIISSDKSEGRFLGWVSSLINAAFTYQGTELVGITAGEAANPRKTVPRAINKVVFRIVLFYIMSLFFIGLLVPYNDSRLSASSAVIASSPFVISIQNAGTYALPDIFNAVVLITVVSAANSNVYVGSRVLYSLARTGNAPKQFGYVTRQGVPYLGVVCTAALGLLAFLVVNNNANTAFNWLINISTLAGLCAWLFISLAHIRFMQALKHRGISRDDLPFKAKLMPYGAYYAAFFVTVIIFIQGFQAFCPFKVSEFFTSYISLILLAVVFIGCQIYYKCRFIWKLEDIDIDSDRREIEAIIWEDDEPKNLWEKFWAAVA
notes: as for B1
Km [4]: 34 ± 17 µM

B5: Lyp1 (Lyp1-YPet) (Saccharomyces cerevisiae S288C; G292A/G294A/P293A) (protein)
chain: MGRFSNIITSNKWDEKQNNIGEQSMQELPEDQIEHEMEAIDPSNKTTPYSIDEKQYNTKKKHGSLQGGAIADVNSITNSLTRLQVVSHETDINEDEEEAHYEDKHVKRALKQRHIGMIALGGTIGTGLFVGISTPLSNAGPVGSLIAYIFMGTIVYFVTQSLGEMATFIPVTSSITVFSKRFLSPAFGVSNGYMYWFNWAITYAVEVSVIGQVIEYWTDKVPLAAWIAIFWVIITLMNFFPVKVYGEFEFWVASVKVLAIMGYLIYALIIVCGGSHQGPIGFRYWRNPGAWAAAIISSDKSEGRFLGWVSSLINAAFTYQGTELVGITAGEAANPRKTVPRAINKVVFRIVLFYIMSLFFIGLLVPYNDSRLSASSAVIASSPFVISIQNAGTYALPDIFNAVVLITVVSAANSNVYVGSRVLYSLARTGNAPKQFGYVTRQGVPYLGVVCTAALGLLAFLVVNNNANTAFNWLINISTLAGLCAWLFISLAHIRFMQALKHRGISRDDLPFKAKLMPYGAYYAAFFVTVIIFIQGFQAFCPFKVSEFFTSYISLILLAVVFIGCQIYYKCRFIWKLEDIDIDSDRREIEAIIWEDDEPKNLWEKFWAAVA
notes: as for B1
Km [4]: 63 ± 83 µM

Reference: paper PMC7687128, “Extracellular loops matter – subcellular location and function of the lysine transporter Lyp1 from Saccharomyces cerevisiae” (The Febs Journal, 2020)
